# Reference: patent publication US9018256B2, “Feed additive for animals of P-thymol, salt derivative or ester derivative thereof” (priority 2011, dated 2015)
# Read-outs that look alike come from different tables or passages of the source.
# What was measured:
# salmonella choleraesuis = test: In-vitro antibacterial activity, tube double dilution method; assay type: cell-based
# Chemy Valley ducks = test: Growth promoting effect test on ducks; assay type: in vivo, duck; conditions: 100 ppm in feed, 1 to 46-day-old ducks; for Total Feed Consumption / Total Weight Gain: 100 per group
# salmonella gallinarum = assay type: cell-based
# [1] = test system: three-way cross weaned pigs; test: Growth promoting effect test on weaned pigs; assay type: in vivo, pig; conditions: 100 ppm in feed, 30 days; for Total Feed Consumption / Total Weight Gain: 30 per group
# salmonella bacillus = assay type: cell-based
# [2] = test system: Lingnan yellow big chicken; test: Comparison of chicken growth promoting effects of p-thymol, thymol and carvacrol; assay type: in vivo; conditions: 100 ppm in feed, 1 to 21-day-old chickens; for Total Feed Consumption / Total Weight Gain: 50 per group
# [3] = Changes in chicken complete formula feed during preservation (gas chromatography); conditions: 25-30° C., initial 100 ppm
# [4] = Volatility comparison under reduced-pressure drying; conditions: for weight remained after reduced-pressure drying: initial weight 10.0 g
# escherichia coli = test: In-vitro antibacterial activity, tube double dilution method; assay type: cell-based
# staphylococcus aureus = test: as above; assay type: cell-based
# black carps = test: Application in aquatic feed (black carp growth test); assay type: in vivo; conditions: for average weight gain improved compared with the control group / feed conversion rate (FCR) / feed conversion rate reduced compared with the control group / final weight / weight gain: 100 ppm in feed, black carps, 8 weeks
# clostridium perfringens = assay type: cell-based
# Wistar rats = test: Rat oral LD50 measurement (improved Karber's method); assay type: in vivo
# rats = conditions: rat, in vivo; cited from earlier work
# [5] = salmonella choleraesuis CEC19940141
# [6] = salmonella choleraesuis CEC19940146
# [7] = clostridium perfringens CAU0591
# [8] = clostridium perfringens CAU0795
# [9] = clostridium perfringens CAU0855
# [10] = clostridium perfringens CAU0859
# [11] = clostridium perfringens HNAU160
# [12] = clostridium perfringens HNAU166
# [13] = rat, oral, preliminary experiment
structure (smiles),measurement,setting,value
"Cc1ccc(C(C)C)c(O)c1 [thymol, 5-methyl-2-isopropyl-phenol]",Inhibiting Activity (minimum bacteria inhibiting concentration),salmonella choleraesuis; [5],250 µg/mL
same,Inhibiting Activity (minimum bacteria inhibiting concentration),salmonella choleraesuis; [6],250 µg/mL
same,Feed Conversion Rate,Chemy Valley ducks,2.726
same,Survival Rate,Chemy Valley ducks,100%
same,feed conversion rate reduced compared with the control group,Chemy Valley ducks,0.062
same,Total Feed Consumption,Chemy Valley ducks,940.7 kg
same,Total Weight Gain,Chemy Valley ducks,345.1 kg
same,Inhibiting Activity (minimum bacteria inhibiting concentration),salmonella gallinarum; salmonella gallinarum CAU0205,500 µg/mL
same,Inhibiting Activity (minimum bacteria inhibiting concentration),salmonella gallinarum; salmonella gallinarum CAU0206,250 µg/mL
same,Inhibiting Activity (minimum bacteria inhibiting concentration),salmonella gallinarum; salmonella gallinarum QAU0399,500 µg/mL
same,Feed Conversion Rate,[1],2.324
same,Survival Rate,[1],100%
same,feed conversion rate reduced compared with the control group,[1],0.097
same,Total Feed Consumption,[1],796.3 kg
same,Total Weight Gain,[1],342.6 kg
same,Inhibiting Activity (minimum bacteria inhibiting concentration),salmonella bacillus,250 µg/mL
same,Average Weight Gain,[2],334.8 g
same,Feed Conversion Rate,[2],1.756
same,Survival Rate,[2],100%
same,feed conversion rate reduced compared with the control group,[2],0.026
same,Total Feed Consumption,[2],29.40 kg
same,Total Weight Gain,[2],16.74 kg
same,concentration measured after extraction from the complete formula feed,[3]; 1 day,100.4 ppm
same,concentration measured after extraction from the complete formula feed,[3]; 15 days,90.2 ppm
same,concentration measured after extraction from the complete formula feed,[3]; 30 days,78.9 ppm
same,concentration measured after extraction from the complete formula feed,[3]; 45 days,63.7 ppm
same,concentration measured after extraction from the complete formula feed,[3]; 60 days,49.7 ppm
same,weight remained after reduced-pressure drying,"[4]; 50° C., 1 hour",6.12 g
same,weight remained after reduced-pressure drying,"[4]; 70° C., 1 hour",1.02 g
same,weight remained after reduced-pressure drying,"[4]; 90° C., 1 hour",0 g
same,volatilized part,"[4]; reduced-pressure drying 70° C., 1 hour",89.8%
same,Inhibiting Activity (minimum bacteria inhibiting concentration),escherichia coli; escherichia coli CAU0020,250 µg/mL
same,Inhibiting Activity (minimum bacteria inhibiting concentration),escherichia coli; escherichia coli CAU0053,250 µg/mL
same,Inhibiting Activity (minimum bacteria inhibiting concentration),escherichia coli; escherichia coli CAU0147,250 µg/mL
same,Inhibiting Activity (minimum bacteria inhibiting concentration),escherichia coli; escherichia coli CAU0159,250 µg/mL
same,Inhibiting Activity (minimum bacteria inhibiting concentration),escherichia coli; escherichia coli CAU0195,250 µg/mL
same,Inhibiting Activity (minimum bacteria inhibiting concentration),staphylococcus aureus; s. aureus CAU0804,500 µg/mL
same,Inhibiting Activity (minimum bacteria inhibiting concentration),staphylococcus aureus; s. aureus CAU0810,125 µg/mL
same,Inhibiting Activity (minimum bacteria inhibiting concentration),staphylococcus aureus; s. aureus CAU0837,250 µg/mL
same,Inhibiting Activity (minimum bacteria inhibiting concentration),staphylococcus aureus; s. aureus CAU0866,250 µg/mL
same,Inhibiting Activity (minimum bacteria inhibiting concentration),staphylococcus aureus; s. aureus CAU0868,250 µg/mL
same,Inhibiting Activity (minimum bacteria inhibiting concentration),staphylococcus aureus; s. aureus CAU0869,125 µg/mL
same,Inhibiting Activity (minimum bacteria inhibiting concentration),staphylococcus aureus; s. aureus CAU0871,250 µg/mL
same,average weight gain improved compared with the control group,black carps,4.53%
same,feed conversion rate (FCR),black carps,1.44 ± 0.08
same,feed conversion rate reduced compared with the control group,black carps,3.36%
same,final weight,black carps,601.58 ± 28.02 g
same,weight gain,black carps,139.29 ± 7.37%
same,Inhibiting Activity (minimum bacteria inhibiting concentration),clostridium perfringens; [7],250 µg/mL
same,Inhibiting Activity (minimum bacteria inhibiting concentration),clostridium perfringens; [8],250 µg/mL
same,Inhibiting Activity (minimum bacteria inhibiting concentration),clostridium perfringens; [9],250 µg/mL
same,Inhibiting Activity (minimum bacteria inhibiting concentration),clostridium perfringens; [10],250 µg/mL
same,Inhibiting Activity (minimum bacteria inhibiting concentration),clostridium perfringens; [11],500 µg/mL
same,Inhibiting Activity (minimum bacteria inhibiting concentration),clostridium perfringens; [12],250 µg/mL
"Cc1ccc(C(C)C)cc1O [carvacrol, 2-methyl-5-isopropyl-phenol]",Inhibiting Activity (minimum bacteria inhibiting concentration),salmonella choleraesuis; [5],500 µg/mL
same,Inhibiting Activity (minimum bacteria inhibiting concentration),salmonella choleraesuis; [6],250 µg/mL
same,Feed Conversion Rate,Chemy Valley ducks,2.739
same,Survival Rate,Chemy Valley ducks,100%
same,feed conversion rate reduced compared with the control group,Chemy Valley ducks,0.049
same,relative weight gain rate improved compared with the control group,Chemy Valley ducks,2.51%
same,Total Feed Consumption,Chemy Valley ducks,928.3 kg
same,Total Weight Gain,Chemy Valley ducks,338.9 kg
same,Relative Weight Gain Rate,Chemy Valley ducks; control = 100,102.51%
same,Inhibiting Activity (minimum bacteria inhibiting concentration),salmonella gallinarum; salmonella gallinarum CAU0205,250 µg/mL
same,Inhibiting Activity (minimum bacteria inhibiting concentration),salmonella gallinarum; salmonella gallinarum CAU0206,500 µg/mL
same,Inhibiting Activity (minimum bacteria inhibiting concentration),salmonella gallinarum; salmonella gallinarum QAU0399,500 µg/mL
same,Feed Conversion Rate,[1],2.336
same,Survival Rate,[1],100%
same,feed conversion rate reduced compared with the control group,[1],0.085
same,relative weight gain rate improved compared with the control group,[1],4.69%
same,Total Feed Consumption,[1],798.1 kg
same,Total Weight Gain,[1],341.7 kg
same,Relative Weight Gain Rate,[1]; control = 100,104.69%
same,Inhibiting Activity (minimum bacteria inhibiting concentration),salmonella bacillus,250 µg/mL
same,Toxicity Judgment,Wistar rats; rat oral LD50 grading,relative
same,LD50,"Wistar rats; rat, oral, observed 7 days",6400 mg/kg weight
same,Dm (dose causing 100% death),Wistar rats; [13],1800 mg/kg weight
same,Dn (dose causing 0% death),Wistar rats; [13],400 mg/kg weight
same,Average Weight Gain,[2],332.9 g
same,Feed Conversion Rate,[2],1.761
same,Survival Rate,[2],100%
same,feed conversion rate reduced compared with the control group,[2],0.021
same,relative weight gain rate improved compared with the control group,[2],3.19%
same,Total Feed Consumption,[2],29.32 kg
same,Total Weight Gain,[2],16.65 kg
same,Relative Weight Gain Rate,[2]; control = 100,103.19%
same,concentration measured after extraction from the complete formula feed,[3]; 1 day,99.6 ppm
same,concentration measured after extraction from the complete formula feed,[3]; 15 days,87.7 ppm
same,concentration measured after extraction from the complete formula feed,[3]; 30 days,73.1 ppm
same,concentration measured after extraction from the complete formula feed,[3]; 45 days,58.5 ppm
same,concentration measured after extraction from the complete formula feed,[3]; 60 days,42.6 ppm
same,weight remained after reduced-pressure drying,"[4]; 50° C., 1 hour",4.84 g
same,weight remained after reduced-pressure drying,"[4]; 70° C., 1 hour",0 g
same,weight remained after reduced-pressure drying,"[4]; 90° C., 1 hour",0 g
same,volatilization (in words),[4]; reduced-pressure drying within 1 hour at 70° C. and over,completely volatilized
same,Inhibiting Activity (minimum bacteria inhibiting concentration),escherichia coli; escherichia coli CAU0020,250 µg/mL
same,Inhibiting Activity (minimum bacteria inhibiting concentration),escherichia coli; escherichia coli CAU0053,500 µg/mL
same,Inhibiting Activity (minimum bacteria inhibiting concentration),escherichia coli; escherichia coli CAU0147,250 µg/mL
same,Inhibiting Activity (minimum bacteria inhibiting concentration),escherichia coli; escherichia coli CAU0159,250 µg/mL
same,Inhibiting Activity (minimum bacteria inhibiting concentration),escherichia coli; escherichia coli CAU0195,500 µg/mL
same,Inhibiting Activity (minimum bacteria inhibiting concentration),staphylococcus aureus; s. aureus CAU0804,500 µg/mL
same,Inhibiting Activity (minimum bacteria inhibiting concentration),staphylococcus aureus; s. aureus CAU0810,250 µg/mL
same,Inhibiting Activity (minimum bacteria inhibiting concentration),staphylococcus aureus; s. aureus CAU0837,250 µg/mL
same,Inhibiting Activity (minimum bacteria inhibiting concentration),staphylococcus aureus; s. aureus CAU0866,250 µg/mL
same,Inhibiting Activity (minimum bacteria inhibiting concentration),staphylococcus aureus; s. aureus CAU0868,250 µg/mL
same,Inhibiting Activity (minimum bacteria inhibiting concentration),staphylococcus aureus; s. aureus CAU0869,250 µg/mL
same,Inhibiting Activity (minimum bacteria inhibiting concentration),staphylococcus aureus; s. aureus CAU0871,250 µg/mL
same,average weight gain improved compared with the control group,black carps,3.52%
same,feed conversion rate (FCR),black carps,1.45 ± 0.06
same,feed conversion rate reduced compared with the control group,black carps,2.68%
same,final weight,black carps,598.08 ± 27.11 g
same,weight gain,black carps,138.0 ± 7.78%
same,survival rate (SR),black carps; in vivo,100%
same,oral median lethal dose (LD50) of rats,rats,810 mg/kg weight
same,Inhibiting Activity (minimum bacteria inhibiting concentration),clostridium perfringens; [7],500 µg/mL
same,Inhibiting Activity (minimum bacteria inhibiting concentration),clostridium perfringens; [8],250 µg/mL
same,Inhibiting Activity (minimum bacteria inhibiting concentration),clostridium perfringens; [9],500 µg/mL
same,Inhibiting Activity (minimum bacteria inhibiting concentration),clostridium perfringens; [10],500 µg/mL
same,Inhibiting Activity (minimum bacteria inhibiting concentration),clostridium perfringens; [11],500 µg/mL
same,Inhibiting Activity (minimum bacteria inhibiting concentration),clostridium perfringens; [12],250 µg/mL
